# Measured values published in patent US9561228B2 (Celgene Avilomics Research, Inc., priority 2013, dated 2017).
# Experiments:
# [1] = test system: ERK1/2 phosphorylation of p90RSK in HT29 cells; assay: pRSK MSD Assay in HT29 cells; format: cell-based; settings: Homo sapiens, HT-29, read-out: ERK1/ERK2 PRSK MSD HT29 EC50
# In short: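 Serum-starved HT29 cells (0.1% FBS overnight) treated with test compound for 120 min at 37° C, then lysed with protease and phosphatase inhibitors. Phospho-p90RSK quantified by MSD sandwich immunoassay: RSK capture antibody, phospho-RSK detection antibody plus Sulfo-tagged antibody, electrochemiluminescence read.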
# ERK1/ERK2 = assay: Measurement of Erk occupancy with biotinylated covalent probe I-299 (HT-29); format: cell-based; settings: HT-29 cells
# Experimental: Measurement of Erk Occupancy with Biotinylated Covalent Probe
# This experiment measured occupancy of the ERK1/ERK2 target by compounds according to the invention. This experiment was conducted using the Mesoscale Discovery test kit (Cat. # N45107B). One day before the assay, cells were split and added at 50,000 cells per well to a flat-bottom 96 well plate in 200 μl of growth medium. The next day, the medium was discarded, 100 μl medium containing test compound was added, and the plate was incubated at 37° C. for 120 minutes. The plate was rinsed once with PBS, and 50 μl lysis buffer with test compound was added. The plate was incubated at 4° C. for 30 min, and 30 μl of lysate was transferred to a plate to capture total and phosphor-Erk. Biotinylated probe 1-299 was diluted in lysis buffer and added to each well to a final concentration of 0.2 μM. The plate was incubated for 2 hr under constant shaking at room temperature. The plate was washed 3 times with MSD wash buffer. To detect the biotinylated probe bonding, tagged streptavidin was added (Mesoscale Discovery, Cat. # R32AD-1) at 1 μg/ml, 25 μl/well, followed by a 60 min incubation under shaking. The plate was washed 3 times, 150 μl MSD Read Buffer (Mesoscale Discovery, Cat. R61TX) was added and the plate was read in a plate reader manufactured by MSD. Percent occupancy by test compound at Erk was calculated by comparing the chemiluminescence readings from treated cells as compared to the chemiluminescence readings in untreated controls (which are defined as 100% probe bonding or 0% test compound occupancy). The amount of covalent probe signal divided by the amount of ERK signal for samples with no test compound treatment represents the maximum probe signal (MPS). In samples treated with test compound prior to covalent probe, the ratio of probe signal to ERK signal (the test probe signal, TPS) was reduced by the degree of target occupancy by the test compound which blocks covalent probe binding. The difference between the MPS and the TPS, divided by the MPS gave the target occupancy by the test compound. This ratio was then expressed as a percent occupancy. Results from this assay are provided in Table A below under the column “Occupancy EC50 (nM) HT-29.”
# [2] = test system: HT-29 cells (colorectal adenocarcinoma); assay: Inhibition of cancer cell proliferation, HT-29 (CellTiterGlo, 72 hours); format: cell-based; settings: Homo sapiens
# In short: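 HT-29 cells seeded at 3000/well, then treated with 3-fold serial dilutions from a 5,000 nM two-fold solution in serum-free RPMI1640, untreated wells as control, for 72 h at 37° C. CellTiterGlo luminescence converted to cell number via a standard curve; GI50 from percent inhibition versus untreated growth.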
# Erk1 = target: T1, Erk1 (Homo sapiens, UniProt P27361); assay: Protein Mass Modification Assay (intact protein MALDI, 60 min, 10-fold excess of compound); format: binding
# T1 construct: purchased Millipore 14-439
# In short: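 Human Erk1 was incubated 60 min at room temperature with a 10-fold molar excess of compound, then analysed as intact protein by MALDI with sinapinic acid matrix. The centroid mass shift versus untreated protein was divided by compound molecular weight to give percent modified protein.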
# [3] = test system: A375 cells (malignant melanoma); assay: Inhibition of cancer cell proliferation, A375 (CellTiterGlo, 72 hours); format: cell-based; settings: Homo sapiens, A-375
# In short: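 A375 melanoma cells, 3000/well, exposed 72 h at 37 °C to compound in 3-fold serial dilutions (solution added as 2× stock starting at 5,000 nM in serum-free DMEM). CellTiterGlo luminescence converted to cell number via standard curve; % inhibition vs untreated control, GI50 from curve fit.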
# [4] = test system: ERK1/2 phosphorylation of p90RSK (pRSK); assay: Duration of action after washout: p-RSK inhibition at 6 hr; format: cell-based; settings: 6 hr after washout
# Experimental: Measurement of Duration of Action of Test Compounds
# One day before the assay, the cells were split and added at 50,000 cells per well in flat-bottom 96 well plate in 200 μl of growth media. The next day, the medium was discarded, 100 μl medium containing test compounds was added, and the plate was incubated at 37° C. for 120 minutes. The medium was discarded, and the cells were rinsed 3 times with PBS followed by addition of 200 μl of fresh grow medium. The plate was returned to a 37° C. incubator, and separate cell lysates were made using MSD lysis buffer after 0.25, 0.5, 1, 2, 4, 6, 8 and 18 or 24 hours. Thereafter, pRSK was measured as described above in the section entitled pRSK MSD Assay.
# [5] = test system: ERK1/2 phosphorylation of p90RSK in A375 cells; assay: Detection of total and phosphor-RSK by MSD ELISA (A375); format: cell-based; settings: Homo sapiens, A-375, read-out: ERK1/ERK2 PRSK A375 EC50
# In short: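 A375 cells serum-starved overnight in DMEM/0.1% FBS, then treated 2 h at 37° C with compound (1000× DMSO dilutions into medium). Lysates captured on RSK antibody-coated MSD plates; phospho-RSK (Ser380) and total RSK detected with SulfoTag secondary antibodies by electrochemiluminescence.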
# [6] = test system: HCT116 cells (colorectal carcinoma); assay: Inhibition of cancer cell proliferation, HCT116 (CellTiterGlo, 72 hours); format: cell-based; settings: Homo sapiens, HCT-116
# Experimental: Measurement of Inhibition of Cancer Cell Proliferation (HCT116/Colorectal Carcinoma)
# The following protocol used a HCT116 cell line, which cell line is a model for colorectal carcinoma. HCT116 cells were split and 3000 cells in 100 μl of growth medium were added per well of a flat-bottom 96-well plate. A two-fold test compound solution in serum-free RPM1640 was made, starting at 5,000 nM. Then, 3-fold serial dilutions were made across the plate from well 1 to well 11. Well 12, the last well in a row on the plate, was left as untreated control. 100 μl compound solutions were then transferred to the wells, so the total volume of media was 200 μl per well. Plates were returned to a 37° C. incubator, and the cells were cultured for 72 hours. To measure cell proliferation after 72 hours, media was discarded from the plates, 50 μl/well of fresh medium was added, and 50 μl CellTiterGlo solution was added (Promega Cat#G7573). The plate was covered with a dark lid and incubated for 10 min. A white sealing tape was applied to the bottom of the plate, and the plate was read in a luminescence plate reader. […] 50 μl CellTiterGlo was added per well, and the plate was read in a luminescence plate reader after 10 min. The reading was plotted vs. cell number to generate a standard curve and the equation of the curve fit. The compound-treated sample luminescence readings were converted to cell numbers using the curve-fit equation. The percent of inhibition, using untreated control as 100% growth, was then calculated. GI50 was then calculated by GraphPad Prism.
# MEK1 activated ERK1 = target: T2, MEK1 activated ERK1 (Homo sapiens, UniProt P27361); assay: Omnia continuous-read kinase assay for potency against MEK1 activated ERK1; format: biochemical; settings: MEK1 activated ERK1, ATP at KM; read-out: ERK1 Omnia WT ATP KM IC50
# T2 construct: purchased Millipore (Billerica, Mass.) 14-439-K
# In short: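 Apparent IC50 came from initial reaction slopes (RFU vs time) plotted against log inhibitor with a variable-slope fit. Reactions were started with ERK1 (4 nM final) added to 50 μM ATP, roughly at its appKM, and 10 μM Sox-conjugated ST17 peptide in 20 mM Tris pH 7.5, 5 mM MgCl2. Fluorescence was monitored every 71 seconds.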
# T1 sequence (P27361 whole entry): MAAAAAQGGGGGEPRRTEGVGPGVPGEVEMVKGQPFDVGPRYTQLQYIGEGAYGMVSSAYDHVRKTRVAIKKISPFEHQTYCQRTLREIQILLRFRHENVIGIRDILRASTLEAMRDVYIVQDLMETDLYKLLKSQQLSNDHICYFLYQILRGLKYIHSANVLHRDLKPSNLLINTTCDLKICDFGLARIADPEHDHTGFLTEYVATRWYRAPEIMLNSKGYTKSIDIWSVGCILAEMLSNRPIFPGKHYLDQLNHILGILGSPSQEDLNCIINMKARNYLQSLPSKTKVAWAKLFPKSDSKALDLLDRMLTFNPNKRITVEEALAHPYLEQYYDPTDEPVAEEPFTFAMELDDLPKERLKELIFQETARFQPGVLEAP
# T2 sequence (P27361 whole entry): as above
EC50 [1],EC50 (ERK1/ERK2),GI50 [2],ERK1 Mass Mod (%) (Erk1),GI50 [3],EC50 [5],GI50 [6],IC50 (MEK1 activated ERK1),SMILES,p-RSK inhibition at 6 hr (%) [4]
< 100 nM,< 100 nM,101 to 500 nM,E (a mass modification of ≧70%),,,,,C=CC(=O)Nc1ccccc1Nc1nc(NC2CCCC(C(N)=O)C2)ncc1Cl (racemic) [Compound I-102],
501 to 999 nM,< 100 nM,< 100 nM,,101 to 500 nM,,,,"C=CC(=O)Nc1ccccc1Nc1nc(Nc2cc(C(N)=O)c(F)cc2C)ncc1C(F)(F)F [Compound I-76, 5-((4-((2-Acrylamidophenyl)amino)-5-(trifluoromethyl)pyrimidin-2-yl)amino)-2-fluoro-4-methylbenzamide]",
,,< 100 nM,,< 100 nM,< 100 nM,< 100 nM,,"C=CC(=O)Nc1ccccc1Nc1nc(N[C@H]2CCCN(C(=O)CO)C2)ncc1C(F)(F)F [Compound I-15, (S)—N-(2-((2-((1-(2-hydroxyacetyl)piperidin-3-yl)amino)-5-(trifluoromethyl)pyrimidin-4-yl)amino)phenyl)acrylamide]",E (a p-RSK inhibition percent of ≧70%)
< 100 nM,< 100 nM,101 to 500 nM,E (a mass modification of ≧70%),,,,< 100 nM,"C=CC(=O)Nc1ccccc1Nc1nc(N[C@@H]2CCC[C@H](C(N)=O)C2)ncc1C(F)(F)F (racemic) [Compound I-2, Rac-cis-3-((4-((2-acrylamidophenyl)amino)-5-(trifluoromethyl)pyrimidin-2-yl)amino)cyclohexanecarboxamide]",
101 to 500 nM,< 100 nM,< 100 nM,,101 to 500 nM,,101 to 500 nM,,"C=CC(=O)Nc1ccccc1Nc1nc(Nc2cc(CO)c(F)cc2C)ncc1C(F)(F)F [Compound I-77, N-(2-((2-((4-Fluoro-5-(hydroxymethyl)-2-methylphenyl)amino)-5-(trifluoromethyl)pyrimidin-4-yl)amino)phenyl)acrylamide]",
< 100 nM,< 100 nM,101 to 500 nM,,,,,,"C=CC(=O)Nc1ccccc1Nc1nc(Nc2ccc(F)cc2C#N)ncc1Cl [Compound I-211, N-(2-((5-chloro-2-((2-cyano-4-fluorophenyl)amino)pyrimidin-4-yl)amino)phenyl)acrylamide]",

SMILES,EC50 [1],EC50 (ERK1/ERK2),GI50 [2],ERK1 Mass Mod (%) (Erk1),GI50 [3],EC50 [5],GI50 [6],IC50 (MEK1 activated ERK1),p-RSK inhibition at 6 hr (%) [4]
"C=CC(=O)Nc1cc(F)ccc1Nc1nc(Nc2ccc(F)cc2C)ncc1Cl [Compound I-212, N-(2-((5-chloro-2-((4-fluoro-2-methylphenyl)amino)pyrimidin-4-yl)amino)-5-fluorophenyl)acrylamide]",< 100 nM,< 100 nM,101 to 500 nM,F (a mass modification of 31-69%),,,,,
